Laboratory results taken from US20260109709A1 (MIRATI THERAPEUTICS, INC., priority 2021, published 2026).
pIC50: −log10 of the molar value.

Target: T1, PRMT5/MEP50 complex (Homo sapiens, UniProt O14744)
T1 construct: purchased Reaction Biology Corporation
Assay: PRMT5:MEP50 FlashPlate Assay (histone H4 peptide methylation)
Type: biochemical
Details: IC50 + 2 μM MTA, plus 2 μM MTA, 40 nM H4 (1-15) peptide, 1 μM SAM
Experimental: The PRMT5 inhibitory activity of compounds of the present invention was determined using a PRMT5: MEP50 FlashPlate Assay and a PRMT5: MEP50 HotSpot Assay (Reaction Biology Corporation).
The assay uses purified human, PRMT5 enzyme to convert S-adenosyl-L-[methyl-3H]methionine plus histone H4 L-arginine to S-adenosyl-L-homocysteine plus histone H4 [methyl-3H]-L-arginine. The assay was carried out using Streptavidin-coated FlashPlates (Perkin Elmer), which contained a scintillant embedded in the plastic of the plate. The histone H4 peptide substrate was conjugated with biotin, which binds to the streptavidin-coated well of the plate, placing the H4 peptide in close proximity to the side well and the scintillant. The transfer of the tritiated methyl group from S-adenosyl-L-[methyl-3H]methionine to the bound histone H4 peptide generated a radiolabeled histone H4, which was quantitated by measuring in a scintillation counter to determine the activity of PRMT5 enzyme in the presence and absence of compound. […] Briefly, compounds of the present invention were solubilized in 100% DMSO at a highest concentration of 10 mM. […] Control samples lacking compound, PRMT5/MEP50 complex or various reaction components also were prepared and processed in parallel with compound test samples. SAH was used as a positive control for assay validation. To measure PRMT5 inhibitory activity, 3 nM PRMT5/MEP50 complex (Reaction Biology Corporation) was preincubated with test compound in assay buffer containing 40 nM histone H4 peptide (amino acids 1-15)-Biotin conjugate for 20 min at room temperature. The enzymatic reaction was initiated by adding 1 μM tritiated S-adenosyl methionine (final concentration) and the reaction is allowed to proceed for 20 min. The reaction was stopped and the amount of bound, tritiated H4 peptide in each sample was determined using a scintillation counter.

T1 sequence (O14744 2-637 limits assumed): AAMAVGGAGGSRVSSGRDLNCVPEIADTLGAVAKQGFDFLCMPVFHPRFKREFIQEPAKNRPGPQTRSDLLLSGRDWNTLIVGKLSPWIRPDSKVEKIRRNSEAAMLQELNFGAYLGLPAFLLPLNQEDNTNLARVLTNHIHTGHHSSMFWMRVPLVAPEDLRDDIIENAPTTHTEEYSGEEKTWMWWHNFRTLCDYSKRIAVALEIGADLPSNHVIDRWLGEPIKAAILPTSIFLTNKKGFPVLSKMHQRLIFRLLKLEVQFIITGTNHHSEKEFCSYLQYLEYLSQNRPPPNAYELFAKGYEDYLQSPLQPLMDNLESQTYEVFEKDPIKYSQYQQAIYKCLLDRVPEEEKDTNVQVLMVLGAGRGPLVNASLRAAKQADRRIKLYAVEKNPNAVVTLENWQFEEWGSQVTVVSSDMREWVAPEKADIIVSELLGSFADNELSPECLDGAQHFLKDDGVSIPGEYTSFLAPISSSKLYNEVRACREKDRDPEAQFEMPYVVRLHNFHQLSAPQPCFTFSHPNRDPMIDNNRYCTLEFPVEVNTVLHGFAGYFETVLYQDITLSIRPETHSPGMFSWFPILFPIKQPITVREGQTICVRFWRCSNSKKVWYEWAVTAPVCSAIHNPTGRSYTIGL
T1 sequence (Q9BQA1 2-342 partner limits assumed): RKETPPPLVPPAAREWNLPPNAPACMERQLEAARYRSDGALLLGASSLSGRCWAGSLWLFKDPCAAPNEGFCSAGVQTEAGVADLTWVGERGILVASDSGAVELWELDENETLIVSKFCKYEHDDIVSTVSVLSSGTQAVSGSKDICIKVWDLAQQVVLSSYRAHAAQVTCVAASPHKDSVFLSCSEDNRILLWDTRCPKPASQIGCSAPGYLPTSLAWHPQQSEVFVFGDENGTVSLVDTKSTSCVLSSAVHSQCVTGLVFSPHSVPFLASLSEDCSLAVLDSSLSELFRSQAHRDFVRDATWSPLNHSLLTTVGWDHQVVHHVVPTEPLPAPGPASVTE

Row | Compound | pIC50
1 | CCO[C@@H]1COC[C@H]1Nc1cccc2c1nc(N)n2C (racemic) [Example 1-7, rac-N4-((3R,4S)-4-ethoxytetrahydrofuran-3-yl)-1-methyl-1H-benzo[d]imidazole-2,4-diamine] | < 3.52
2 | Cn1c(N)nc2c(NCCN3CC4CC4C3)cccc21 (stereo not drawn) [Example 1-8, N4-(2-(3-azabicyclo[3.1.0]hexan-3-yl)ethyl)-1-methyl-1H-benzo[d]imidazole-2,4-diamine] | < 3.52
3 | Cn1c(N)nc2c(Nc3cnn(CCN4CCCC4=O)c3)cccc21 [Example 1-13, 1-(2-(4-((2-amino-1-methyl-1H-benzo[d]imidazol-4-yl)amino)-1H-pyrazol-1-yl)ethyl)pyrrolidin-2-one] | < 3.52
4 | Cn1c(N)nc2c(Nc3ccncc3)cccc21 [Example 1-31, 1-methyl-N4-(pyridin-4-yl)-1H-benzo[d]imidazole-2,4-diamine] | < 3.52
5 | Cn1c(N)nc2c(Nc3ccncn3)cccc21 [Example 1-32, 1-methyl-N4-(pyrimidin-4-yl)-1H-benzo[d]imidazole-2,4-diamine] | < 3.52
6 | Cc1nnc(CN(C)c2cccc3c2nc(N)n3C)n1C [Example 1-50, N4-((4,5-dimethyl-4H-1,2,4-triazol-3-yl)methyl)-N4,1-dimethyl-1H-benzo[d]imidazole-2,4-diamine] | < 3.52
7 | CN(Cc1nnc2n1CCOC2)c1cccc2c1nc(N)n2C [Example 1-51, N4-((5,6-dihydro-8H-[1,2,4]triazolo[3,4-c][1,4]oxazin-3-yl)methyl)-N4,1-dimethyl-1H-benzo[d]imidazole-2,4-diamine] | < 3.52
8 | Cn1c(N)nc2cc(-c3cncnc3)ccc21 [Example 1-52, 1-methyl-5-(pyrimidin-5-yl)-1H-benzo[d]imidazol-2-amine] | < 3.52
9 | Cn1c(N)nc2cc(-c3cccnc3)ccc21 [Example 1-54, 1-methyl-5-(pyridin-3-yl)-1H-benzo[d]imidazol-2-amine] | < 3.52
10 | Cc1ncccc1-c1ccc2c(c1)nc(N)n2C [Example 1-58, 1-methyl-5-(2-methylpyridin-3-yl)-1H-benzo[d]imidazol-2-amine] | < 3.52
11 | Cn1c(N)nc2cc(-c3cn[nH]c3)ccc21 [Example 1-60, 1-methyl-5-(1H-pyrazol-4-yl)-1H-benzo[d]imidazol-2-amine] | < 3.52
12 | Cn1c(N)nc2cc(-c3occc3C#N)ccc21 [Example 1-61, 2-(2-amino-1-methyl-1H-benzo[d]imidazol-5-yl)furan-3-carbonitrile] | 4.46
13 | Cn1c(N)nc2c(-c3cncnc3)cccc21 [Example 1-62, 1-methyl-4-(pyrimidin-5-yl)-1H-benzo[d]imidazol-2-amine] | < 3.52
14 | Cn1c(N)nc2c(-c3cccnc3)cccc21 [Example 1-64, 1-methyl-4-(pyridin-3-yl)-1H-benzo[d]imidazol-2-amine] | < 3.52
15 | Cn1c(N)nc2c(-c3ccccc3)cccc21 [Example 1-65, 1-methyl-4-phenyl-1H-benzo[d]imidazol-2-amine] | < 3.52
16 | Cn1c(N)nc2c(-c3ccncc3)cccc21 [Example 1-66, 1-methyl-4-(pyridin-4-yl)-1H-benzo[d]imidazol-2-amine] | < 3.52
17 | Cn1nccc1-c1cccc2c1nc(N)n2C [Example 1-67, 1-methyl-4-(1-methyl-1H-pyrazol-5-yl)-1H-benzo[d]imidazol-2-amine] | < 3.52
18 | Cn1ccc(-c2cccc3c2nc(N)n3C)n1 [Example 1-68, 1-methyl-4-(1-methyl-1H-pyrazol-3-yl)-1H-benzo[d]imidazol-2-amine] | < 3.52
19 | Cc1cc(-c2cccc3c2nc(N)n3C)cnc1O [Example 1-70, 5-(2-amino-1-methyl-1H-benzo[d]imidazol-4-yl)-3-methylpyridin-2-ol] | < 3.52
20 | Cn1cc(-c2cccc3c2nc(N)n3C)ccc1=O [Example 1-71, 5-(2-amino-1-methyl-1H-benzo[d]imidazol-4-yl)-1-methylpyridin-2(1H)-one] | < 3.52
21 | Cn1c(N)nc2c(-c3ccnnc3)cccc21 [Example 1-72] | < 3.52
